Measurements: US20240342167A1, “INHIBITORS OF PORCINE REPRODUCTIVE AND RESPIRATORY SYNDROME VIRUS” (University of Connecticut, priority 2023, published 2024)
Entries after “also recorded” stand apart in the source; their conditions may differ.

Assays:
[1] = target: T1, PPI between PRRSV GP4 and CD163-SRCR5 domain (Sus scrofa, UniProt Q2VL90); assay: BiFC assay GP4/SRCR5; type: cell-based, porcine CD163; PRRSV VR2332; details: for Average GP4 (relative fluorescence intensity, SRCR5/GP4 BiFC): 5 μM, HEK293T, 24 h after transfection, relative to NC (DMSO), n=3
T1 construct: SRCR5 domain of porcine CD163 receptor was amplified from cDNA of pig cells; expressed in transfected cells; host or cells: HEK293T
Description: (§1) HEK293T cells were cultivated in 6-well plates in FP medium and transfected with 1 μg XpBiFC-VN155 (I152L)-SRCR5 and 1 μg pBiFC-VC155-GP2/GP4 using Fugene6. After 4 h, cells were digested with 0.05% Typsin-EDTA (ThermoFisher Scientific, MA, USA)) and passaged to 48-well plates which were coated with EmbryoMax 0.1% Gelatin Solution (Sigma-Aldrich, MO, USA) and preloaded with 5 μM B7 analogues. Fluorescence images were taken at 24 h after transfection and fluorescence intensity was measured by image J.

[2] = target: T2, PPI between PRRSV glycoprotein GP2a and CD163-SRCR5 (Sus scrofa, UniProt Q2VL90); assay: BiFC assay GP2a/SRCR5; type: cell-based, porcine CD163; PRRSV VR2332; details: 5 μM; for Average GP2a (relative fluorescence intensity, SRCR5/GP2a BiFC): HEK293T, 24 h after transfection, relative to NC (DMSO) = 1.00, n=3
T2 construct: SRCR5 domain of porcine CD163 receptor was amplified from cDNA of pig cells; expressed in transfected cells; host or cells: HEK293T
Description: as §1

[3] = target: T3, GFP-fusion CD163-SRCR5 (GFP-fused SRCR5 domain of porcine CD163, recombinant, expressed in E. coli BL21 (DE3)) (Sus scrofa, UniProt Q2VL90); assay: Microscale thermophoresis (MST) assay: direct association of compounds with purified GFP-fused CD163-SRCR5; type: binding; details: Monolith NT.115, blue channel, values represent Mean, N=3
T3 construct: GFP and GFP-SRCR2 as controls
Description: The amino acids within the LBP and loop 5-6 regions are underlined. […] B7 was placed in position 1 (Boxes) to show the potential disturbing of both conformations. […] B7 was placed in position 2 (Box) to show the potential disturbing of this conformation. […] Values represent Mean, N=3. […] Values represent Mean, N=3. […] Values represent Mean, N=3.
All chemicals (dissolved in 10 mM in DMSO) were designed and provided by Atomwise, Inc. (CA, USA). Compounds were further diluted in PBS (137 mM NaCl, 2.7 mM KCl, 8 mM Na2HPO4, and 2 mM KH2PO4, pH 7.4, Gibco, MA, USA) to 200 μM as the working solution. Pulmonary alveolar macrophages (PAMs) were harvested from healthy 4-6-month Landrace/Yorkshire pigs. Briefly, pig lungs were removed from euthanized pigs during necropsy and transferred on ice to the lab. 200 mL warm PBS with 200 U/mL penicillin and 200 μg/mL streptomycin was injected into trachea and reached major bronchi of both sides of the lungs. Lungs were then massaged and bronchoalveolar lavage fluid (BALF) was collected. PAMs were harvested from the BALF by centrifugation at 400×g for 15 min and washed in PBS twice. Fresh PAMs were counted and frozen in 90% FBS and 10% DMSO (Sigma-Aldrich, MO) in liquid nitrogen. PAMs were cultivated in RPMI-1640 (Gibco, MA) supplemented with 10% FBS, 2 mM Glutamax, 0.1 mM MEM Non-Essential Amino Acids, 1 mM sodium pyruvate, 100 U/mL penicillin and 100 μg/mL streptomycin, and 0.5 μg/mL Amphotericin B. SRCR5 domain of porcine CD163 receptor was amplified from cDNA of pig cells and inserted into pBiFC-VN155 (I152L). PRRSV GP2a and GP4 were amplified from reverse-transcribed genome of PRRSV VR2332 strain and cloned into pBiFC-VC155 vector as previously described (Huang et al., Virol J 17, 116, 2020). Porcine CD163 was cloned into pMXs vector (Cell Biolabs, CA, USA). For protein purification, […] were cloned into pET28b-GFP (Addgene, MA, USA).
The recombinant pET28b-GFP-SRCR2/SRCR5 constructs were transformed into Escherichia coli strain BL21 (DE3) (New England Biolabs, MA, USA). The transformed clones were cultured at 37° C. in LB broth with […] kanamycin, induced by adding 1 mM isopropyl β-D-1-thiogalactopyranoside at optical density of 0.6-0.8, and then incubated at 37° C. for 3 h. For protein purification, cells were pelleted and resuspended in xTractor Buffer containing DNAse I, lysozyme solution, and Protease Inhibitor Cocktail (Takara Bio USA, Inc., CA). The suspension was sonicated and centrifuged. […]
The purified GFP, GFP-fused SRCR2 or SRCR5 proteins were mixed with serially diluted compounds. The mixtures were loaded to capillaries and the affinity was measured by Monolith NT.115 (NanoTemper Technologies, Inc., CA, USA) at corresponding MST power with the blue channel. […]

[4] = test system: PRRSV strains NADC30, VR-2332 and Lelystad; assay: PRRSV infection assay in PAMs, qRT-PCR for PRRSV; type: cell-based; details: for inhibitory effect against PRRSV infection (in words): 15 μM, PAMs, qRT-PCR; for antiviral potency, SAR comparison (in words): qRT-PCR and titration in infected PAMs, compared with B7, B7-A4 or G7
Description: PAMs were cultivated in 12-well plates and infected with PRRSV NADC30 strain or Lelystad strain at MOI=0.05 for 1 h. Cells were then incubated with 15 μM B7 analogues for 24 h at 37° C. RNAs were extracted from the PAMs for quantitative reverse transcription-PCR (qRT-PCR) using RNeasy Mini Kits (Qiagen, MD, USA) and supernatants of cells were collected PRRSV titration assay.
RNAs isolated from infected PAMs were reversely transcribed to cDNA using iScript™ cDNA Synthesis Kit (Bio-Rad Laboratories, CA, USA). Specific qRT-PCR primers for ORF7 gene of PRRSV NADC30 and Lelystad strains, and for porcine GAPDH are shown in the Table S2 qRT-PCR reaction was conducted with SYBR Green Supermix (Bimake, TX, USA) using the ABI 7500 Fast Platform (Thermo Fisher Scientific, MA, USA). GAPDH served as the house keeping gene for normalization.

T1 sequence (Q2VL90 477-577): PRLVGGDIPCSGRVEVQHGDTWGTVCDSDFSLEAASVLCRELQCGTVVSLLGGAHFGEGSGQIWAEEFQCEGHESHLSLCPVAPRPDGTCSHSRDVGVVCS
T3 sequence (Q2VL90 477-577 limits assumed): as the sequence (Q2VL90 477-577) above
T2 sequence (Q2VL90 477-577): as above

Compound	Average GP4 (relative fluorescence intensity, SRCR5/GP4 BiFC) [1]	Average GP2a (relative fluorescence intensity, SRCR5/GP2a BiFC) [2]	Kd [3]	inhibitory effect against PRRSV infection (in words) [4]	antiviral potency, SAR comparison (in words) [4]	interference with the PPI between GP4/SRCR5 (in words) [1]	inhibition of the PPI between SRCR5-VN and GP2a-VC at pH 6.0 (in words) ([2]; pH 6.0)
Cc1cc(F)ccc1S(=O)(=O)Nc1nc2ccccc2nc1Nc1cccc(Cl)c1C [E4]	0.74	0.12					
Cc1ccc(Nc2nc3ccccc3nc2NS(=O)(=O)c2ccc(F)cc2C)cc1 [H1]	0.94	0.24					
Cc1cc(F)ccc1S(=O)(=O)Nc1nc2ccccc2nc1Nc1cccc(Cl)c1 [E7]	0.69	0.10					
COc1ccccc1NS(=O)(=O)c1cccc(Nc2nc3ccccc3nc2NS(=O)(=O)c2ccc(F)cc2C)c1 [Compound F9]			24.7 µM				
Cc1cccc(S(=O)(=O)Nc2nc3ccccc3nc2Nc2cccc(S(=O)(=O)N3CCCCC3)c2)c1 [Compound E10]			38 µM				
Cc1cccc(S(=O)(=O)Nc2nc3ccccc3nc2Nc2cccc(F)c2)c1 [C10]	0.63	0.33					
COc1ccc(Nc2nc3ccccc3nc2NS(=O)(=O)c2ccc(F)cc2C)cc1Cl [A3]	0.43	0.06		mild	significantly increased antiviral effect		
Cc1cc(F)ccc1S(=O)(=O)Nc1nc2ccccc2nc1Nc1ccccc1 [G7]	0.71	0.15			much lower antiviral effect compared with B7; also recorded: obvious loss of the antiviral activity compared with B7		
COc1ccccc1NS(=O)(=O)c1cccc(Nc2nc3ccccc3nc2NS(=O)(=O)c2ccc(F)cc2C)c1 [F9]	0.07	0.03			did not change at all		
Cc1ccccc1Nc1nc2ccccc2nc1NS(=O)(=O)c1ccc(F)cc1C [F7]	0.96	0.30					
Cc1ccc(S(=O)(=O)Nc2nc3ccccc3nc2Nc2cccc(S(=O)(=O)N3CCCC3)c2)cc1 [A7]	0.53	0.07		strong	significant drop of its antiviral potency		
O=S(=O)(Nc1nc2ccccc2nc1Nc1cccc(S(=O)(=O)N2CCCC2)c1)c1ccccc1 [C6]	0.34	0.19		mild			
O=S(=O)(Nc1nc2ccccc2nc1Nc1cccc(S(=O)(=O)N2CCCCC2)c1)c1ccccc1 [G4]	0.06	0.04			significantly decreased its antiviral potency		
COc1ccc(NS(=O)(=O)c2cccc(Nc3nc4ccccc4nc3NS(=O)(=O)c3ccc(F)cc3C)c2)cc1 [E3]	0.59	0.10		low activity	near complete loss of antiviral-potency		
COc1ccc(NS(=O)(=O)c2cccc(Nc3nc4ccccc4nc3NS(=O)(=O)c3ccc(F)cc3C)c2)cc1 [Compound E3]			330 µM				
Cc1cccc(S(=O)(=O)Nc2nc3ccccc3nc2Nc2cccc(S(=O)(=O)N3CCCCC3)c2)c1 [E10]	0.06	0.06			no change in antiviral potency		
Cc1ccccc1S(=O)(=O)Nc1nc2ccccc2nc1Nc1ccc(S(=O)(=O)N2CCOCC2)cc1 [D2]	0.23	0.07			mildly but significantly decreased		
Cc1ccc(S(=O)(=O)Nc2nc3ccccc3nc2Nc2cccc(S(=O)(=O)N3CCCCC3)c2)cc1 [Compound B7-A4]			22.9 µM				
O=S(=O)(Nc1nc2ccccc2nc1Nc1ccc(Cl)c(S(=O)(=O)N2CCOCC2)c1)c1ccccc1 [G10]	0.80	0.13			mildly but significantly decreased		
COc1ccc(Nc2nc3ccccc3nc2NS(=O)(=O)c2ccc(F)cc2C)cc1 [A1]	0.89	0.63					
Cc1cc(F)ccc1S(=O)(=O)Nc1nc2ccccc2nc1Nc1cccc(Cl)c1Cl [F12]	0.63	0.31		strong	significantly increased antiviral effect; also recorded: antiviral potency nearly identical to B7	does not effectively interfere	inhibit the PPI
